Marks after values point to notes of the source that are not given here.
Assays:
TCPTP gene = assay: Gene expression in the liver of obese rats (qPCR), TCPTP gene; format: in vivo, rat; conditions: five-day treatment, vs Ob group
Description: (§1) Further, six groups were formed: control (Con, n = 10), obesity (Ob, n = 10), obese rats with five-day treatment with compounds 1 (Ob + 1, n = 5), 2 (Ob + 2, n = 5), 3 (Ob + 3, n = 10), and 4 (Ob + 4, n = 10). All compounds were administered in DMSO (300 µL) at a daily dose of 7 mg/kg (1 and 2), 8 mg/kg (3), and 10 mg/kg (4) (i.p.), based on the results of the preliminary experiments. The used doses of compounds 1–4, in terms of the number of moles of each compound per kg of animal body weight, were equivalent. Control and obese rats received DMSO in the same volumes (300 µL), instead of the tested compounds. During the five days of the experiment, all animals were transferred to standard food and had free access to food and drinking water. […] The test was carried out on the morning of the next day after the last (fifth) injection of the compounds or DMSO, after a 10 h fast. The rest of the animals (n = 5 in each group) were anesthetized and decapitated on the last day of the experiment. The blood and liver samples were taken to measure blood glucose and hormone levels and gene expression in the liver.
The total RNA was isolated from the liver samples of rats using the “ExtractRNA Reagent” (Evrogen, Moscow, Russia), and the samples containing 1 μg of RNA were transcribed to cDNA using the random oligodeoxynucleotide primers and the “MMLV RT kit” (Evrogen, Russia). The amplification procedure was carried out in the mixture containing 10 ng of reverse transcribed product, 0.4 μM of the forward and reverse primers, and the “qPCRmix-HS SYBR + LowROX kit” (Evrogen, Russia). The amplified signals were detected using the “Applied Biosystems® 7500 Real-Time PCR System” (Life Technologies, Carlsbad, CA, USA, Thermo Fisher Scientific Inc., USA). The primers that were used to assess the expression of genes encoding the phosphatase PTP1B, TC-PTP, and SHP1 and the insulin and leptin receptors are presented in Table 4. The obtained data were calculated with the delta–delta Ct method and expressed as a fold expression, relative to the corresponding control. […]

[1] = system: male rats with HFD-induced obesity; assay: Blood glucose, insulin and leptin levels and insulin resistance index in obese rats; format: in vivo, male Wistar rats; conditions: for Glucose, After / Insulin, After / Leptin, After / Glucose, Before / Insulin, Before / Leptin, Before: blood, M ± SEM, n = 5; for Glucose, After / Insulin, After / Leptin, After / IR (insulin resistance index), After: after five-day i.p. treatment, 7 mg/kg (1, 2), 8 mg/kg (3), 10 mg/kg (4); for Glucose, Before / Insulin, Before / Leptin, Before / IR (insulin resistance index), Before: before treatment (baseline); for IR (insulin resistance index), After / IR (insulin resistance index), Before: product of blood glucose and insulin concentrations
Description: as §1
The glucose levels in the blood obtained from the tail vein were measured using a glucometer (Life Scan Johnson & Johnson, Denmark) and the test strips “One Touch Ultra” (USA). The levels of insulin and leptin in rat serum were estimated with the “Rat Insulin ELISA” (Mercodia AB, Uppsala, Sweden) and “ELISA for Leptin, Rat” (Cloud-Clone Corporation, Houston, TX, USA) kits. The GTT was carried out using a single injection of glucose (2 g/kg, i.p.) after 10 h of fasting, as described earlier. The blood glucose levels were measured before (0 min) and 15, 30, 60, and 120 min after the glucose load.

| Compound | expression of the TCPTP gene in the liver (TCPTP gene) | Glucose, After [1] | Insulin, After [1] | Leptin, After [1] | Glucose, Before [1] | Insulin, Before [1] | Leptin, Before [1] | IR (insulin resistance index), After [1] | IR (insulin resistance index), Before [1] | insulin resistance index compared to the Ob group ([1]; five-day treatment, 3 8 mg/kg/day) |
| --- | --- | --- | --- | --- | --- | --- | --- | --- | --- | --- |
| O=c1c(CO)n[nH]c2ccc(Br)cc12 [Compound 4, 6-Bromo-3-(hydroxymethyl)cinnolin-4(1H)-one] | significant difference to the Ob group | 5.24 ± 0.25 ^a mM | 1.06 ± 0.13 ^a,c ng/mL | 1.90 ± 0.16 ^a,b,c ng/mL | 5.72 ± 0.30 ^a mM | 1.65 ± 0.18 ^a ng/mL | 3.17 ± 0.25 ^a ng/mL | 5.61 ± 0.89 ^a arb.Units | 9.63 ± 1.57 ^a arb.Units | – |
| O=c1c(CO)n[nH]c2ccccc12 [Compound 1] | significant difference to the Ob group | 5.74 ± 0.07 ^a mM | 1.11 ± 0.14 ^a ng/mL | 1.72 ± 0.24 ^b,c ng/mL | 5.94 ± 0.22 ^a mM | 1.57 ± 0.16 ^a ng/mL | 3.06 ± 0.40 ^a ng/mL | 6.32 ± 0.77 ^a arb.Units | 9.46 ± 1.31 ^a arb.Units | – |
| O=c1c(CO)n[nH]c2ccc(Cl)cc12 [Compound 3, 6-Chloro-3-(hydroxymethyl)cinnolin-4(1H)-one] | significant difference to the Ob group | 5.36 ± 0.31 ^a mM | 0.93 ± 0.13 ^b,c ng/mL | 1.52 ± 0.21 ^b,c ng/mL | 5.80 ± 0.31 ^a mM | 1.51 ± 0.18 ^a ng/mL | 2.93 ± 0.42 ^a ng/mL | 5.12 ± 0.97 ^b arb.Units | 8.96 ± 1.46 ^a arb.Units | significantly reduced |
